Ends that are not written are not given here.
How the values were obtained:
P. aeruginosa MurF [1] = target: T1, P. aeruginosa MurF (Pseudomonas aeruginosa, UniProt Q9EY48); experiment: MurF kinetics with respect to D-Ala-D-Ala, spectrophotometric (Lanzetta reagent) ATPase assay; format: biochemical
T1 construct: made in house
Procedure: (§1) The ATPase activity of P. aeruginosa MurF was quantified by a colorimetric assay that measures the release of nanomoles of inorganic phosphate using the Lanzetta reagent. The reaction mixture (100 μl), held at room temperature, contained 40 nM of purified MurF from a fresh aliquot, 1 mM ATP, 100 μM UDP-MurNAc-Ala-Glu-meso-A2pm and 5 mM D-Ala-D-Ala in buffer C (100 mM Tris-HCl pH 8.6, 40 mM KCl, 500 mM NaCl, 1 mg/ml bovine serum albumin and 10 mM MgCl2). Reaction time was 15 min before adding 800 μl of the Lanzetta reagent. After an additional 5 min for colour development, 100 μl of 34% (w/v) sodium citrate was added to stop the reaction. The optical density at 660 nm was immediately measured with a Cary spectrophotometer (Varian, Mississauga, Ontario, Canada). The amount of inorganic phosphate released by MurF was determined by comparison to the linear portion of a phosphate standard curve with a minimum R^2 value of 0.99. The phosphate content of each component in the reaction was subtracted from the total phosphate measured, negative controls were done without enzyme or substrate, and assays were done in triplicate. Different concentrations of each substrate and NaCl were tested to determine optimal conditions for the study of the activity of MurFp1.
The maximal specific activity, the catalytic constant (kcat), the Michaelis-Menten constant (Km) and the enzyme efficiency (kcat/Km) were determined for MurF with respect to D-Ala-D-Ala. Kinetic parameters were determined by nonlinear regression analysis with a square matrix of enzyme velocities following the Michaelis-Menten equations using the Enzyme Kinetics Module version 1 of SigmaPlot version 8.

P. aeruginosa MurF [2] = target: T1, P. aeruginosa MurF; experiment: MurF inhibition by MurFp1, spectrophotometric (Lanzetta reagent) ATPase assay; format: biochemical
Procedure: as §1
MurFp1 was synthesized and purified as previously described. Peptide purity (> 95%) was analyzed by HPLC and molecular mass (1424.68 daltons) was confirmed by MALDI-TOF mass spectroscopy. […]
Inhibition of MurF enzymatic activity by MurFp1 was measured by the spectrophotometric assay described above. […] The effect of non-specific peptides was analysed on MurF enzymatic activity, with and without UDP-MurNAc-Ala-Glu-A2pm in the pre-incubation step. […]
Kinetic data were fitted to the appropriate model equations using the Sigmaplot Enzyme Kinetics Module. Steady-state inhibition kinetic parameters were determined by nonlinear regression analysis using the least squares method as a reference to ensure accurate dataset fitting and to generate error estimates for each individual observation. […]

MurF = conditions: 12-mer phage library, elution with glycine-HCl, 1 mM ATP or 1 mM D-Ala-D-Ala; ten phages sequenced per elution condition; in words
Procedure: Phage display screening was performed with the PH.D.-12 phage library (New England Biolabs, Mississauga, Ontario, Canada). […] Phages encoding selected peptides were eluted at the end of the third round using 100 μl of 0.2 M glycine-HCl (pH 2.2) [17], and 100 μl of 1 mM ATP or 1 mM D-Ala-D-Ala for 30 min. The DNA of ten phages was prepared and sequenced with a -96 gIII primer (New England Biolabs) for each elution condition [23].

T1 sequence (Q9EY48 entry or part of it): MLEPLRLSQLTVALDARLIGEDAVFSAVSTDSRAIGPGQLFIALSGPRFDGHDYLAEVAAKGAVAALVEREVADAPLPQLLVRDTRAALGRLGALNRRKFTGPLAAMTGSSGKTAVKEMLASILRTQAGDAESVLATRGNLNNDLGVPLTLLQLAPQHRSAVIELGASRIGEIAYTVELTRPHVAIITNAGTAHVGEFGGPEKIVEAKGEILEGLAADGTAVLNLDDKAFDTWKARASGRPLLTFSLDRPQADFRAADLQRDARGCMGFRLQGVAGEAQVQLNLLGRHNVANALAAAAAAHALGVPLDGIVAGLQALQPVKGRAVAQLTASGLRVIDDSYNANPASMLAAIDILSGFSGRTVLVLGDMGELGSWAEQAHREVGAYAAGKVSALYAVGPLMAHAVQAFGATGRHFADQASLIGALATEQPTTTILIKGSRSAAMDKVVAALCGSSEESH

For D-Alanyl-D-Alanine [D-Ala-D-Ala], the Km (P. aeruginosa MurF [1]; MurF, with respect to D-Ala-D-Ala, pH 8.6, room temperature) was 115 ± 10 µM, the “ligations of D-Ala-D-Ala per MurF active site (kcat)” value (P. aeruginosa MurF [1]; ligation to UDP-MurNAc-Ala-Glu-meso-A2pm, from kcat) was “about 100 per min” and the kcat/Km (P. aeruginosa MurF [1]; with respect to D-Ala-D-Ala, pH 8.6, room temperature) was 14200 ± 2500 M⁻¹ s⁻¹.
With TMGFTAPRFPHY [MurFp1] the inhibition at 2000 µM (P. aeruginosa MurF [2]; 2 mM MurFp1, 30-minute pre-incubation of MurF with MurFp1, no substrate in pre-incubation) was 50%, the IC50 (P. aeruginosa MurF [2]; 30 min pre-incubation with MurF, MurFp1 and UDP-MurNAc-Ala-Glu-meso-A2pm, 40 nM MurF, pH 8.6, room temperature, 15 min reaction, OD 660 nm, assays in triplicate) was 250 ± 10 µM and the “effect on Km for D-Ala-D-Ala” value (P. aeruginosa MurF [2]; each MurFp1 concentration used, 30 min pre-incubation with UDP-MurNAc-Ala-Glu-A2pm, in words) was “remained almost the same”.
In the case of VSANRHLGGNLP, the “recovery in third round of bio-panning” value (MurF) is reported as “recovered once by both the ATP and D-Ala-D-Ala elutions”.
